Test results as given in US20170334899A1, “AMINO-SUBSTITUTED ISOTHIAZOLES” (Bayer Pharma Aktiengesellschaft, priority 2014, published 2017).

Experiments:
[1] = system: human cervical tumor cell line HeLa (ATCC CCL-2); assay: SAC-Formation - Paclitaxel-Induced Assay; type: cell-based; conditions: Homo sapiens, HeLa, 24 h, HeLa cells, paclitaxel 0.05 μM, test range 0.005 μM-20 μM, read-out: IC50 [mol/l] SAC-Formation - Paclitaxel-Induced Assay
Procedure, shortened: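 HeLa cells incubated overnight at 37° C, then given paclitaxel (0.05 μM final) plus test compound (0.005–20 μM, 0.5% DMSO) together for 24 h at 37° C. Fixed cells stained for phospho-histone H3 Ser10 (mitotic cells) and Hoechst 33342 (cell count); imaging-derived mitotic index fitted by four-parameter Hill equation.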

CDK2/CycE = molecular target: T1, CDK2/CycE (Homo sapiens, UniProt P24941); assay: CDK2/CycE kinase assay (TR-FRET); type: biochemical; conditions: avg, read-out: CDK2 avg (IC50 [mol/l])
T1 construct: GST; purchased ProQinase GmbH (Freiburg, Germany); host or cells: insect cells (Sf9)
Procedure, shortened: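 GST-tagged human CDK2 and CycE from Sf9 cells, preincubated 15 min with compound, then 25 min at 22° C. with 10 μM ATP and 0.75 μM biotinylated Rb-derived peptide (final). Phospho-substrate read by TR-FRET (anti-pRB pSer807/pSer811, Eu anti-mouse IgG, streptavidin-XL665), 665/620 nm ratio, normalised to no-inhibitor and no-enzyme controls.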

Structure (SMILES)	IC50 [1] [µM]	IC50 (CDK2/CycE) [µM]
Cc1nsc(Nc2cncc(C(F)(F)F)n2)c1C(=O)Nc1ccc(C(=O)N2CCN(CCF)CC2)cc1 [Example 274, N-(4-{[4-(2-fluoroethyl)piperazin-1-yl]carbonyl}phenyl)-3-methyl-5-{[6-(trifluoromethyl)pyrazin-2-yl]amino}-1,2-thiazole-4-carboxamide]	9	5.4
Cc1nsc(Nc2cnc(C(F)(F)F)cn2)c1C(=O)Nc1ccc(F)c(OCCCN(C)CC(F)F)c1 [Example 301, N-(3-{3-[(2,2-difluoroethyl)(methyl)amino]propoxy}-4-fluorophenyl)-3-methyl-5-{[5-(trifluoromethyl)pyrazin-2-yl]amino}-1,2-thiazole-4-carboxamide]	0.81	> 20
Cc1nsc(Nc2cnc(C(F)(F)F)cn2)c1C(=O)Nc1ccc(OC2CCN(CC(F)(F)F)C2)nc1 (centres unmarked) [Example 297, 3-methyl-N-(6-{[1-(2,2,2-trifluoroethyl)pyrrolidin-3-yl]oxy}pyridin-3-yl)-5-{[5-(trifluoromethyl)pyrazin-2-yl]amino}-1,2-thiazole-4-carboxamide]	0.056	> 20
Cc1nsc(Nc2cc(C#N)ccn2)c1C(=O)Nc1cccc(C(=O)NC(C)C)c1 [Example 254, 5-[(4-cyanopyridin-2-yl)amino]-N-[3-(isopropylcarbamoyl)phenyl]-3-methyl-1,2-thiazole-4-carboxamide]	2.3	> 20
